PubChem BioAssay (NCI)
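Cells were grown in 96-well plates and exposed to each compound for 48 hours at five concentrations; endpoints were interpolated linearly between bracketing concentrations, or set to the highest concentration if not reached. GI50: concentration for 50% inhibition of growth. The concentration for full growth arrest is given as TGI.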

How the values were obtained:
Test in all cases: NCI anticancer screen, dose series, 48 h
SR leukemia = tested on: SR leukemia
HOP-62 NSCLC = tested on: HOP-62 NSCLC
CCRF-CEM leukemia = tested on: CCRF-CEM leukemia
LOX IMVI melanoma = tested on: LOX IMVI melanoma
HCT-15 colon = tested on: HCT-15 colon
786-0 renal = tested on: 786-0 renal
OVCAR-8 ovarian = tested on: OVCAR-8 ovarian
COLO 205 colon = tested on: COLO 205 colon
MOLT-4 leukemia = tested on: MOLT-4 leukemia
KM12 colon = tested on: KM12 colon

Row | SMILES | GI50 (SR leukemia) | TGI (SR leukemia) | GI50 (HOP-62 NSCLC) | TGI (HOP-62 NSCLC) | GI50 (CCRF-CEM leukemia) | TGI (CCRF-CEM leukemia) | GI50 (LOX IMVI melanoma) | TGI (LOX IMVI melanoma) | GI50 (HCT-15 colon) | TGI (HCT-15 colon) | GI50 (786-0 renal) | TGI (786-0 renal) | GI50 (OVCAR-8 ovarian) | TGI (OVCAR-8 ovarian) | GI50 (COLO 205 colon) | TGI (COLO 205 colon) | GI50 (MOLT-4 leukemia) | TGI (MOLT-4 leukemia) | GI50 (KM12 colon) | TGI (KM12 colon)
1 | CCCCNCCCCCNc1cc(OC)cc2cccnc12 | 28600 nM | > 100 µM | 15.1 µM | 30.1 µM | 28100 nM | 74.2 µM | 34800 nM | > 100 µM | 47900 nM | > 100 µM | 14600 nM | 28.2 µM | 17800 nM | 37.6 µM | 17200 nM | 33.8 µM | 18000 nM | 41.1 µM | 39.3 µM | > 100 µM
2 | CC[P+]1(c2ccccc2)CCCCC1 |  | > 100 µM |  | > 100 µM |  | > 100 µM |  | > 100 µM |  | > 100 µM |  | > 100 µM |  | > 100 µM |  | > 100 µM |  | > 100 µM |  | > 100 µM
3 | OCC1OC(n2cnc3c(NCc4ccccc4O)ncnc32)C(O)C1O (centres undefined) | 413 nM | > 29.3 µM | 2.33 µM | 18.2 µM | 274 nM | 33.6 µM | 69.5 nM | 3.62 µM | 432 nM |  | 571 nM | 7.7 µM | 225 nM | 8.09 µM | 524 nM | > 24.4 µM | 596 nM | > 38 µM | 5.23 µM | > 100 µM
4 | CC(C)(C)OC(=O)N1Cc2cc3ccccc3nc2C1CO (centres undefined) | > 100000 nM | > 100 µM | > 100 µM | > 100 µM | > 100000 nM | > 100 µM | > 100000 nM | > 100 µM | > 100000 nM | > 100 µM | > 100000 nM | > 100 µM | > 100000 nM | > 100 µM | > 100000 nM | > 100 µM | > 100000 nM | > 100 µM | > 100 µM | > 100 µM
5 | NCCCNc1nc2ccccc2c2c(=O)c3cc(F)cc(Cl)c3sc12 | 1190 nM | 4.04 µM | 1.77 µM | 3.9 µM | 1950 nM | 4.58 µM | 1680 nM | 3.14 µM | 1570 nM | 3.01 µM | 1450 nM | 2.9 µM | 1810 nM | 3.83 µM | 1920 nM | 4.41 µM | 1780 nM | 3.77 µM | 1.72 µM | 3.17 µM
6 | NC(=O)c1ncn2c(=O)n(CCCl)nnc12 | 57900 nM | 801 µM | 53.4 µM | 139 µM | > 62900 nM | 440 µM |  | 279 µM |  | 521 µM | 46400 nM | 195 µM |  | 426 µM |  | 305 µM | 37200 nM | 567 µM | > 92.4 µM | 408 µM
7 | OCC1OC(n2cnc3c(NCc4ccco4)ncnc32)C(O)C1O (centres undefined) | 1560 nM | 6.92 µM | 3.79 µM | > 48.9 µM | 430 nM | 5.4 µM | 338 nM | 1.48 µM | 524 nM | > 28.1 µM | 2160 nM | 10.3 µM | 160 nM | 3.6 µM | 2250 nM | 7.83 µM | 585 nM | 6.25 µM | 8.51 µM | > 100 µM
8 | C=C1C(=O)O[C@H]2[C@H]1CC/C(COC(=O)/C=C\C(=O)NCc1ccc(Cn3c(=O)sn(-c4ccc(Cl)cc4)c3=O)cc1)=C\CC[C@@]1(C)O[C@@H]21 | 240 nM | 12.3 µM | 2.12 µM | 7.63 µM | 173 nM | 6.65 µM | 193 nM | 0.789 µM | 331 nM | 1.47 µM | 658 nM | 1.39 µM | 691 nM | 2.3 µM | 564 nM | 1.59 µM | 499 nM | 3.27 µM | 0.891 µM | 1.82 µM
9 | CN(C)C/C=C/C(=O)Nc1cc2c(Nc3cccc(Cl)c3F)ncnc2cc1OCCOC(F)F | 1180 nM | 5.22 µM | 1.99 µM | 11.5 µM | 2830 nM | 15.7 µM | 1620 nM | 7.09 µM | 1080 nM |  | 695 nM | 9.77 µM | 1110 nM | 12.4 µM | 1690 nM | 6.35 µM | 1420 nM | 6.18 µM | 3.11 µM | 13.5 µM
10 | CSc1cc(C(C)(C)C)ccc1C(O)c1ccc(C(C)(C)C)cc1SC |  | 32.2 µM |  | 27.3 µM |  | 35.8 µM |  | 24.3 µM |  | 29.9 µM |  | 22.7 µM |  | 28.8 µM |  | 23 µM |  | 21.6 µM |  | 25.8 µM
11 | NS(=O)(=O)c1cc(C(=O)O)c(Cl)c([N+](=O)[O-])c1Cl |  | > 100 µM |  | > 100 µM |  | > 100 µM |  | > 100 µM |  | > 100 µM |  | > 100 µM |  | > 100 µM |  | > 100 µM |  | > 100 µM |  | > 100 µM
12 | CC1(C)CN(CCNc2nccc(-c3c(-c4cccc(O)c4)nc4sccn34)n2)S(=O)(=O)N1 | 3340 nM | > 33.2 µM | 32.7 µM | > 33.2 µM | 7250 nM | > 33.2 µM | 1820 nM | > 33.2 µM | 11500 nM | > 33.2 µM | 11200 nM | > 33.2 µM | 307 nM | > 33.2 µM | 448 nM | 7.25 µM | 11300 nM | > 33.2 µM | 11.9 µM | > 33.2 µM
13 | CCOC(=O)c1cc2c(n1Cc1cc(OC)cc(OC)c1)-c1oncc1CC2 | 47.5 nM | > 36.8 µM | 0.327 µM | > 100 µM | 215 nM | > 100 µM | 593 nM | > 100 µM | 130 nM | > 100 µM | 499 nM | > 100 µM | 475 nM | > 100 µM | 182 nM | 0.616 µM | 525 nM | > 100 µM | 0.0816 µM | > 59.5 µM
14 | Nc1nc(N)c(-c2ccc(Cl)c(Cl)c2)c(CP(Cl)(Cl)(Cl)Br)n1 | 10200 nM | > 100 µM | 72.7 µM | > 100 µM | 8130 nM | > 100 µM | 2720 nM | > 100 µM | 4260 nM | > 100 µM | 14600 nM | > 100 µM | 6510 nM | > 100 µM | 10400 nM | > 100 µM | 28600 nM | > 100 µM | 14.3 µM | > 100 µM
15 | O=C(CC1Sc2ccccc2NC1=O)NNc1ccc(F)cc1 (centres undefined) | 14400 nM | > 100 µM | 66.3 µM | > 100 µM | > 100000 nM | > 100 µM | 4510 nM | > 100 µM | 6760 nM | > 100 µM | 29500 nM | > 100 µM | 9780 nM | > 100 µM | 55600 nM | > 100 µM | 5520 nM | > 100 µM | 25.2 µM | > 100 µM
16 | Oc1ccc(/C=N/NC(=S)Nc2cccnc2)nc1 |  | 0.807 µM |  | > 100 µM |  | 9.78 µM |  | > 100 µM |  | > 100 µM |  | > 73.5 µM |  | 12.6 µM |  | > 100 µM |  | 15 µM |  | > 100 µM
17 | C[C@@H](Oc1cc(-c2cnn(C3CCNCC3)c2)cnc1N)c1c(Cl)cc(F)cc1Cl | 49.7 nM | 1.52 µM | 2 µM | 9.52 µM | 504 nM | 9.88 µM | 1370 nM | 3.21 µM | 2700 nM | 12.5 µM | 2130 nM | 4.84 µM | 3830 nM | 16.3 µM | 857 nM | 2.45 µM | 866 nM | 7.71 µM | 0.0496 µM | 2.93 µM
18 | O=C(O)CCSC(=O)Nc1ccccc1 |  | > 100 µM |  | > 100 µM |  | > 100 µM |  | > 100 µM |  | > 100 µM |  | > 100 µM |  | > 100 µM |  | > 100 µM |  | > 100 µM |  | > 100 µM
